For series [1], the target named is T1, ABCG2 (Homo sapiens, UniProt Q9UNQ0).
T1 construct: ABCG2 in insect cell membrane vesicles (total membranes)
T1 sequence (Q9UNQ0 1-655): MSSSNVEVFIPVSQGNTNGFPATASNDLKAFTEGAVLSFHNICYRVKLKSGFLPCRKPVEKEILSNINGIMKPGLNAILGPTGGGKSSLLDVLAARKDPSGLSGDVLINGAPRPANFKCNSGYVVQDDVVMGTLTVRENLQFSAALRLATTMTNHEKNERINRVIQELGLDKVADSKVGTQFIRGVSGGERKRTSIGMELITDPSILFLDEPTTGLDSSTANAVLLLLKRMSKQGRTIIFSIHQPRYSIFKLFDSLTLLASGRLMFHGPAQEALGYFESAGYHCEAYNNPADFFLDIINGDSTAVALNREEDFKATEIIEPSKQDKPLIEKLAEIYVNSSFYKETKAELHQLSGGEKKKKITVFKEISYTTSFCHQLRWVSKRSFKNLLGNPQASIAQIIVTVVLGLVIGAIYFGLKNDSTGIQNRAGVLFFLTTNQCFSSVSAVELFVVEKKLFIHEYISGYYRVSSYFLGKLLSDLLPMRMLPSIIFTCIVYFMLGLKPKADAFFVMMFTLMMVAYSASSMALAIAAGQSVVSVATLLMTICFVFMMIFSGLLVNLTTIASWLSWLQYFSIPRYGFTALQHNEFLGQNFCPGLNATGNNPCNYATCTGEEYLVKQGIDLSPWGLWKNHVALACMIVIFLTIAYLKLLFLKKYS
As to the kind of experiment: biochemical.

Series [2] deals with T2, ABCG2 (Homo sapiens, UniProt Q9UNQ0, R482T).
T2 sequence (Q9UNQ0 1-655 R482T): T1 sequence (Q9UNQ0 1-655) with R482T
As to the kind of experiment: tritium-labeled mitoxantrone accumulation in transfected cells.

The structures appear in SMILES notation. Numbering of substitutions follows the chain as printed.

The values that follow come from publication PMC7917255 (Frontiers in Pharmacology, 2021).

On to `Cc1cc(O)c(-c2ccc([C@@H](C)CN(C)C)cc2)c2c1[nH]c(=O)c1sccc12` [OTS964], for which, in series [1], the concentration giving a half-maximal response (EC50) – broadly, the concentration giving half of the maximal effect – is 140 nM.

Turning to `O=C1c2c(O)ccc(O)c2C(=O)c2c(NCCNCCO)ccc(NCCNCCO)c21` [mitoxantrone], the “tritium-labeled mitoxantrone accumulation in transfected cells” value in series [2] is recorded as “ABCG2-mediated efflux of mitoxantrone, which is an established substrate of ABCG2, in R482T-mutant-ABCG2-overexpressing cell line”.
